In patent publication US7456220B2, “Immunodulatory compositions and methods of use thereof” (priority 1999, dated 2008):

Test system: gentamicin resistant Escherichia coli
Assay: Rat sepsis model, mortality vs. saline control (Example 15)
Format: in vivo, Wistar rats
Details: Gentamicin 2 mg, gel 2 ml I.M., 24 hours before challenge, Group D mixture, timing not given
Procedure: The model system utilizes Wistar rats surgically implanted with an inoculum of intestinal contents from other rats. The inoculum is prepared in a manner which simulates the microbiologic parameters of the human colon. This is accomplished by placing rats on a diet of lean ground beef for two weeks, and then harvesting, homogenizing and freezing aliquots of prepared intestinal contents for subsequent use. The clinical end points for evaluation in this model are mortality, while microbiologic end points include blood and peritoneal cultures. The general experimental design and methods are as follows.
Male, Wistar, virus antibody free (VAF) rats (Charles River Laboratories, Wilmington, Mass.), weighing 175-200 grams, are utilized for all experiments. All animals are housed, five per cage, within a VAF facility, and given food and water ad libitum, except for those animals used for preparation of the meat-fed cecal inoculum (see below). Animal experiments are carried out according to the guidelines of the Harvard Medical Area Standing Committee on Animals, in facilities accredited by the American Association for the Accreditation of Laboratory Animal Care.
The innoculum for this study is prepared as described in A. Onderdonk et al., Experimental intra-abdominal abscesses in rats; quantitative bacteriology of infected animals. Infection and Immunity, 10:1256-9 (1974); and A. Onderdonk et al., Experimental intra-abdominal abscesses in rats: development of animal model. Infection and Immunity, 10:1256-1259 (1974). Briefly, cecal contents from meat-fed rats are combined with peptone-yeast-glucose broth to form a slurry. This slurry is filtered through gauze to remove large particulate material, aliquoted and frozen at −80° C. until used. Preliminary testing of this inoculum is performed to determine the proper dilution of the inoculum to yield a mortality of 60%-70% in an untreated group.
Animals are anesthetized with Nembutal (50 mg/Kg), and prepared for surgical implantation of the inoculum by shaving the abdomen and applying an iodine solution. A 3-4 cm midline incision is made through the skin and anterior abdominal wall, and a gelatin capsule containing 0.5 mL of the inoculum is inserted into the pelvic region. The incision is closed with one 3-0 suture, and the animals are observed four times per day for the first 48 hours, and every eight hours thereafter. Visibly moribund animals are humanely sacrificed with CO2.
Groups of twenty animals each are implanted with the inoculum described above. For each experiment, a control group of sham-treated animals is employed. For experiments in which quantitative blood and peritoneal cultures are obtained, sufficient additional animals are implanted to allow for such cultures, but mortality in these groups is not included in the clinical outcome calculations, due to the additional manipulation of the animals. Surviving animals from each group are sacrificed after seven days.
A comparison of groups with regard to mortality is made by chi-square analysis as supplied on commercially available statistical software (Instat, GraphPad Software, San Diego, Calif.). A comparison group mean bacterial count is made using Student's T test.
Animals were divided into Groups A, B, C and D, with each Group containing 15 animals. All groups were challenged with 2.629 ml gentamicin resistant Escherichia coli, 0.32 ml Dextran Sulfate, and 29.051 ml Peptone Yeast Glucose. Group A was treated 2 hours after challenge, while Groups B and C were treated 24 hours before challenge. Group A was treated with 2 ml saline I.M.; Group B was treated with 2 mg Gentamicin; Group C was treated with 2 ml HA/CMC/EDC gel I.M.; and Group D was treated with a mixture of Gentamicin and HA/CMC/EDC gel.
The animals were held for 48 hours, and assessed for mortality vs. the saline control.

Gentamicin was tested, and the “% mortality” value (24 hr) was 23.1%, the “mortalities (M)” value (24 hr) was 3 and the “surviving animals (A)” value (24 hr) was 10. For the same substance, the “% mortality” value (48 hr) was 38.5%, the “mortalities (M)” value (48 hr) was 2 and the “surviving animals (A)” value (48 hr) was 8. For the same substance, the “% mortality” value (Total) was 38.5%, the “mortalities (M)” value (Total) was 5 and the “surviving animals (A)” value (Total) was 8.
